This is an account of results in patent US7932262B2 (Novartis AG, priority 2006, dated 2011).

One test deals with T1, PDK1 kinase (Homo sapiens, UniProt O15530).
T1 sequence (O15530 1-556): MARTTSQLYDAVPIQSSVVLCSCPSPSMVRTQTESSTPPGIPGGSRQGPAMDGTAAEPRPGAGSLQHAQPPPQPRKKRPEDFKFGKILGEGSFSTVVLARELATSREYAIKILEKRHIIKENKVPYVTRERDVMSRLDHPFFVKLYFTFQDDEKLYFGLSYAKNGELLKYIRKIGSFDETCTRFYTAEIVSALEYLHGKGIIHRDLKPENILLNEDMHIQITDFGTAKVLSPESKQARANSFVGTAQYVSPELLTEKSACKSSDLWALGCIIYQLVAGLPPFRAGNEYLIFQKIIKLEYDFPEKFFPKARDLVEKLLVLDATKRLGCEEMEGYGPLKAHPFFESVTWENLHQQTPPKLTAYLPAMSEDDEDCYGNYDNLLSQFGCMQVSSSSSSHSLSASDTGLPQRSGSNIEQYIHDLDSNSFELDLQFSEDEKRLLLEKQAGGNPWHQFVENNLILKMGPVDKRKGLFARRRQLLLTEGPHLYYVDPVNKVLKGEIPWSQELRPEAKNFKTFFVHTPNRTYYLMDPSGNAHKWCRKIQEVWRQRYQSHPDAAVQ
Nature of the test: PDK1 Kinase Alpha Screen Assay. The note with it: PDK1 Kinase Alpha Screen Assay; read-out: PDK1 IC50. The test is classed as biochemical. In a few lines:
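Kinase inhibition measured as loss of AlphaScreen signal from antibody recognition of phosphorylated biotin-PDK1-4 peptide. Reactions contain 10 uM ATP and 50 nM peptide, run 3-18 hours before EDTA quench and overnight bead development at room temperature.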

A further test concerns PC-3 cells. Nature of the test: Cell Proliferation Assay (Cell Titer Glo), PC-3 cell line. The test is classed as cell-based. The conditions noted are these: Homo sapiens, PC-3, Cell Proliferation Assay, PC3; read-out: CPEC50 PC3. In a few lines: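 Cell Titer Glo luminescence, read after fresh medium replaced the dosing medium, gave viability of PC-3 cells plated at 1000 cells/well. Compounds, 1:3 serially diluted in DMSO at 500× and then in medium, were added after 3-5 h adhesion and incubated 3 days at 37° C.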

Molecules are shown by their SMILES.

In the case of `O=C(NC1CC1)c1ccc(Nc2ncc3c(Br)ccc(OC4CCNCC4)c3n2)cc1` [Compound 341, 4-(5-bromo-8-(piperidin-4-yloxy)quinazolin-2-ylamino)-N-cyclopropylbenzamide], the IC50 at PDK1 kinase is below 5 µM. In addition, the EC50 in the test with PC-3 cells was 5 to 10 µM.
The like results for `CC(C)NS(=O)(=O)c1ccc(Nc2ncc3c(Br)ccc(OC4CCNCC4)c3n2)cc1` [Compound 342, 4-(5-bromo-8-(piperidin-4-yloxy)quinazolin-2-ylamino)-N-isopropylbenzenesulfonamide] were, in that order, below 5 µM and below 5 µM.
With `O=C(c1ccc(Nc2ncc3ccc(-c4cnn(CCF)c4)cc3n2)cc1)N1CCOCC1` [Compound 343, (4-(7-(1-(2-fluoroethyl)-1H-pyrazol-4-yl)quinazolin-2-ylamino)phenyl)(morpholino)methanone], the IC50 at PDK1 kinase is below 5 µM. Moreover, the EC50 in the test on PC-3 cells is below 5 µM.
Take `O=C(c1ccc(Nc2ncc3ccc(-c4cn[nH]c4)cc3n2)cc1)N1CCOCC1` [Compound 344, (4-(7-(1H-pyrazol-4-yl)quinazolin-2-ylamino)phenyl)(morpholino)methanone]: the IC50 on PDK1 kinase is below 5 µM. In addition, the EC50 in the test with PC-3 cells is below 5 µM.
As for `CN1CCC(Nc2ccc3cnc(Nc4ccc(C(=O)N5CCOCC5)cc4)nc3c2)CC1` [Compound 345, (4-(7-(1-methylpiperidin-4-ylamino)quinazolin-2-ylamino)phenyl)(morpholino)methanone], on PDK1 kinase, the IC50 is below 5 µM. Besides, the EC50 in the test on PC-3 cells was below 5 µM.
With `CN1CCC(Nc2ccc3cnc(Nc4ccc(S(=O)(=O)N5CCOCC5)cc4)nc3c2)CC1` [Compound 346, N7-(1-methylpiperidin-4-yl)-N2-(4-(morpholinosulfonyl)phenyl)quinazoline-2,7-diamine], the IC50 at PDK1 kinase is below 5 µM. For the same molecule, the EC50 in the test on PC-3 cells is below 5 µM.
As to `O=C(c1ccc(Nc2ncc3ccc(NC4CCNCC4)cc3n2)cc1)N1CCOCC1` [Compound 347, morpholino(4-(7-(piperidin-4-ylamino)quinazolin-2-ylamino)phenyl)methanone], the IC50 on PDK1 kinase is below 5 µM. Also, in the test on PC-3 cells, the EC50 was below 5 µM.
On to `CN1CCC(CNc2ccc3cnc(Nc4ccc(C(=O)N5CCOCC5)cc4)nc3c2)CC1` [Compound 348], for which the IC50 on PDK1 kinase was below 5 µM. Further, the EC50 with PC-3 cells lay within 5 to 10 µM.
For the molecule `COCCn1cc(-c2ccc3cnc(Nc4ccc(C(=O)N5CCOCC5)cc4)nc3c2)cn1` [Compound 349, (4-(7-(1-(2-methoxyethyl)-1H-pyrazol-4-yl)quinazolin-2-ylamino)phenyl)(morpholino)methanone], the IC50 on PDK1 kinase was below 5 µM. Also, the EC50 with PC-3 cells was below 5 µM.
In the case of `CC(C)NS(=O)(=O)c1ccc(Nc2ncc3ccc(NC4CCN(C)CC4)cc3n2)cc1` [Compound 350, N-isopropyl-4-(7-(1-methylpiperidin-4-ylamino)quinazolin-2-ylamino)benzenesulfonamide], at PDK1 kinase, the IC50 was below 5 µM. In addition, the EC50 in the test on PC-3 cells is below 5 µM.
For the molecule `O=C(c1ccc(Nc2ncc3ccc(NCC4CCNCC4)cc3n2)cc1)N1CCOCC1` [Compound 351, morpholino(4-(7-(piperidin-4-ylmethylamino)quinazolin-2-ylamino)phenyl)methanone], on PDK1 kinase, the IC50 is below 5 µM. In the test with PC-3 cells, the EC50 is 5 to 10 µM.
The like results for `O=C(c1ccc(Nc2ncc3ccc(N(CCO)CCO)cc3n2)cc1)N1CCOCC1` [Compound 352, (4-(7-(bis(2-hydroxyethyl)amino)quinazolin-2-ylamino)phenyl)(morpholino)methanone] were, in that order, below 5 µM and 5 to 10 µM.
For `O=C(c1ccc(Nc2ncc3ccc(-c4cnn(CCO)c4)cc3n2)cc1)N1CCOCC1` [Compound 353, (4-(7-(1-(2-hydroxyethyl)-1H-pyrazol-4-yl)quinazolin-2-ylamino)phenyl)(morpholino)methanone] the same measures were below 5 µM and 5 to 10 µM.
The like results for `CC(C)NC(=O)c1ccc(Nc2ncc3ccc(NC4CCN(C)CC4)cc3n2)cc1` [Compound 354, N-isopropyl-4-(7-(1-methylpiperidin-4-ylamino)quinazolin-2-ylamino)benzamide] were, in that order, below 5 µM and below 5 µM.
Regarding `CN1CCC(Nc2ccc3cnc(Nc4ccc(N5CCOCC5)c(Cl)c4)nc3c2)CC1` [Compound 355, N2-(3-chloro-4-morpholinophenyl)-N7-(1-methylpiperidin-4-yl)quinazoline-2,7-dimaine], the IC50 at PDK1 kinase is below 5 µM. Moreover, the EC50 with PC-3 cells is below 5 µM.
Regarding `Cc1ccc(OC2CCNCC2)c2nc(Nc3ccc(C(=O)N4CCOCC4)cc3)ncc12` [Compound 356, (4-(5-methyl-8-(piperidin-4-yloxy)quinazolin-2-ylamino)phenyl)(morpholino)methanone], at PDK1 kinase, the concentration for half-maximal inhibition (IC50) was below 5 µM. Moreover, the EC50 in the test with PC-3 cells fell in the range of 5 to 10 µM.
The like results for `CC(C)NS(=O)(=O)c1ccc(Nc2ncc3c(Br)ccc(OC4CCN(C(C)C)CC4)c3n2)cc1` [Compound 357, 4-(5-bromo-8-(1-isopropylpiperidin-4-yloxy)quinazolin-2-ylamino)-N-isopropylbenzenesulfonamide] were, in that order, below 5 µM and below 5 µM.
The like results for `CC(C)N1CCC(Oc2ccc(Br)c3cnc(Nc4ccc(C(=O)N5CCOCC5)cc4)nc23)CC1` [Compound 358, (4-(5-bromo-8-(1-isopropylpiperidin-4-yloxy)quinazolin-2-ylamino)phenyl)(morpholino)methanone] were, in that order, below 5 µM and 5 to 10 µM.
The like results for `Cc1ccc(OC2CCN(C(C)C)CC2)c2nc(Nc3ccc(C(=O)N4CCOCC4)cc3)ncc12` [Compound 359, (4-(8-(1-isopropylpiperidin-4-yloxy)-5-methylquinazolin-2-ylamino)phenyl)(morpholino)methanone] were, in that order, below 5 µM and 5 to 10 µM.
`Cc1ccc(OC2CCN(C(C)C)CC2)c2nc(Nc3ccc(S(=O)(=O)NC(C)C)cc3)ncc12` [Compound 360, N-isopropyl-4-(8-(1-isopropylpiperidin-4-yloxy)-5-methylquinazolin-2-ylamino)benzenesulfonamide]: at PDK1 kinase, the 50% inhibitory concentration (IC50) is below 5 µM. The EC50 in the test with PC-3 cells was below 5 µM.
With `NS(=O)(=O)c1ccc(Nc2ncc3ccc(NC4CCNCC4)cc3n2)cc1` [Compound 361, 4-(7-(piperidin-4-ylamino)quinazolin-2-ylamino)benzenesulfonamide], the IC50 on PDK1 kinase was below 5 µM. Moreover, in the test on PC-3 cells, the EC50 is 5 to 10 µM.
For `Cc1ccc(OC2CCNCC2)c2nc(Nc3ccc(N4CCOCC4)c(Cl)c3)ncc12` [Compound 362, N-(3-chloro-4-morpholinophenyl)-5-methyl-8-(piperidin-4-yloxy)quinazolin-2-amine] the same measures were below 5 µM and below 5 µM.
For `Clc1cc(Nc2ncc3ccc(NC4CCNCC4)cc3n2)ccc1N1CCOCC1` [Compound 363, N2-(3-chloro-4-morpholinophenyl)-N7-(piperidin-4-yl)quinazoline-2,7-diamine] the same measures were below 5 µM and below 5 µM.
For `Cc1ccc(OC2CCNCC2)c2nc(Nc3cccc(F)c3)ncc12` [Compound 365, N-(3-fluorophenyl)-5-methyl-8-(piperidin-4-yloxy)quinazolin-2-amine] the same measures were below 5 µM and 5 to 10 µM.
For `Cc1ccc(OC2CCNCC2)c2nc(Nc3ccc(N4CCOCC4)c(F)c3)ncc12` [Compound 366, N-(3-fluoro-4-morpholinophenyl)-5-methyl-8-(piperidin-4-yloxy)quinazolin-2-amine], the IC50 on PDK1 kinase was below 5 µM. In the test with PC-3 cells, the EC50 lay within 5 to 10 µM.
The like results for `Cc1ccc(OC2CCNCC2)c2nc(Nc3ccc(S(=O)(=O)N4CCOCC4)cc3)ncc12` [Compound 367, 5-methyl-N-(4-(morpholinosulfonyl)phenyl)-8-(piperidin-4-yloxy)quinazolin-2-amine] were, in that order, below 5 µM and 5 to 10 µM.
On to `CN1CCC(Nc2ccc3cnc(Nc4ccc(N5CCOCC5)c(F)c4)nc3c2)CC1` [Compound 368, N2-(3-fluoro-4-morpholinophenyl)-N7-(1-methylpiperidin-4-yl)quinazoline-2,7-diamine], for which, on PDK1 kinase, the IC50 is below 5 µM. Further, in the test with PC-3 cells, the EC50 was below 5 µM.
Regarding `CN1CCC(Nc2ccc3cnc(Nc4ccc(N5CCOCC5)cc4)nc3c2)CC1` [Compound 369, N7-(1-methylpiperidin-4-yl)-N2-(4-morpholinophenyl)quinazoline-2,7-diamine], the IC50 at PDK1 kinase is below 5 µM. Besides, in the test on PC-3 cells, the EC50 lay within 5 to 10 µM.
For the molecule `CN1CCN(c2ccc(Nc3ncc4c(Br)ccc(OC5CCNCC5)c4n3)cc2)CC1` [Compound 373, 5-bromo-N-(4-(4-methylpiperazin-1-yl)phenyl)-8-(piperidin-4-yloxy)quinazolin-2-amine], the IC50 on PDK1 kinase was 10 to 25 µM. In the test on PC-3 cells, the EC50 is below 5 µM.
